Biological target: MDR1 (ABCB1, P-glycoprotein) (Homo sapiens, UniProt P08183)
Assay: Inhibition of MDR1 in multidrug resistant human A2780/DX3 cells assessed as accumulation of doxorubicin at 5 times compound concentration that giving 5% antiproliferative activity after 4 hrs by cytofluorimetric assay relative to (Z)-8-(4-chlorophenyl)-5-methyl-8-(pent-2-enyl-oxy)-[1,2,4]oxadiazolo[3,4-c][1,4]thiazin-3(8H)-one
Assay type: cell-based, A2780 ADR
Conditions: probe doxorubicin

MDR1 (ABCB1, P-glycoprotein), sequence (P08183 whole entry): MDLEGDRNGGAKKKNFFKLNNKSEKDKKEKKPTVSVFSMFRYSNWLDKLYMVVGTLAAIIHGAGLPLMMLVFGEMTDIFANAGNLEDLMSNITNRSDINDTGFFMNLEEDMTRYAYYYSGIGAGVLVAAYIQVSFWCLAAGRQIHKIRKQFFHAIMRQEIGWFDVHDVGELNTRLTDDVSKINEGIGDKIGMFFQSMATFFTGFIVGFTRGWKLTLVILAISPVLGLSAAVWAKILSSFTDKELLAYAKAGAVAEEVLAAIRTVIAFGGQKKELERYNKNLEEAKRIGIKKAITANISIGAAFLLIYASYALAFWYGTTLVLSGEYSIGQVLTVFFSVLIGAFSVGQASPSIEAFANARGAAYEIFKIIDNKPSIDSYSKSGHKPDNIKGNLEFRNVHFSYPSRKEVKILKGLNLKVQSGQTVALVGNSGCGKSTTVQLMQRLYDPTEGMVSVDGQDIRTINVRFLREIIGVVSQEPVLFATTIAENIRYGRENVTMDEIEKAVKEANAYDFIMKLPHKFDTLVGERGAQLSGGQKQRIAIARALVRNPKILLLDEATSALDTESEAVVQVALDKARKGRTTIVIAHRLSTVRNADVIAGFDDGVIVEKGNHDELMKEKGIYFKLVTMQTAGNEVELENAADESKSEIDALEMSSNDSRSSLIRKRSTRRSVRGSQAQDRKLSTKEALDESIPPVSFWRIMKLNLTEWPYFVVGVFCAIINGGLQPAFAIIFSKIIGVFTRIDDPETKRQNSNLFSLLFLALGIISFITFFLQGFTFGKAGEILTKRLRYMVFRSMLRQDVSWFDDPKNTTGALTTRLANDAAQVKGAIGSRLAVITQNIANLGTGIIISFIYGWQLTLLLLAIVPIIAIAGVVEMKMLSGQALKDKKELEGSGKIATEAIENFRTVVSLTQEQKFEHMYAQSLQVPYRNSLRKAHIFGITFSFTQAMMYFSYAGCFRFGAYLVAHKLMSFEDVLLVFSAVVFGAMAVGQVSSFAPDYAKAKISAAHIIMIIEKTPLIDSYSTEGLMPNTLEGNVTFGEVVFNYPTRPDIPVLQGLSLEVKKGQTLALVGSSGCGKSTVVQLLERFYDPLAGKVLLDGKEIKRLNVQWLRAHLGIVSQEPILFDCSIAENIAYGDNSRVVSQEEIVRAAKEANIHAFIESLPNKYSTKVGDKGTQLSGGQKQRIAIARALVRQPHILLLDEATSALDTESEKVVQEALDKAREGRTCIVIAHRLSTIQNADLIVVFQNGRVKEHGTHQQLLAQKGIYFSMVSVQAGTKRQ

Compared with `CCCCCCOC1(c2ccc(Cl)cc2)SC=C(C)n2c1noc2=O` (racemic), `CCCCCCOC1(c2ccc(Br)cc2)SC=C(C)n2c1noc2=O` (racemic) is higher in inhibition at 4 h: 18% for the first, 72% for the second.

Going from `CCC/C=C\COC1(c2ccc(Cl)cc2)SC=C(C)n2c1noc2=O` (racemic) to `CCC/C=C/COC1(c2ccc(Cl)cc2)SC=C(C)n2c1noc2=O` (racemic), the inhibition at 4 h falls from 131% to 109%.

First: CC/C=C\CO[C@@]1(c2ccc(Cl)cc2)SC=C(C)n2c1noc2=O
Second: CC/C=C/COC1(c2ccc(Cl)cc2)SC=C(C)n2c1noc2=O (racemic)
The inhibition at 4 h of the first is higher: 136% for the first, 35% for the second.

First: CC/C=C\CO[C@]1(c2ccc(Cl)cc2)SC=C(C)n2c1noc2=O
Second: CC/C=C\COC1(c2ccc(Br)cc2)SC=C(C)n2c1noc2=O (racemic)
The inhibition at 4 h of the first is lower: 48% for the first, 139% for the second.

Reference: ChEMBL document CHEMBL2406943, “ABCB1 Structural Models, Molecular Docking, and Synthesis of New Oxadiazolothiazin-3-one Inhibitors” (ACS Med Chem Lett, 2013)
